Measurements from PMC10692721, “Drug discovery for heart failure targeting myosin-binding protein C” (The Journal of Biological Chemistry, 2023).
Entries after “also recorded” stand apart in the source; their conditions may differ.

Key:
[1] = test system: fC1-C2 binding to Alexa Fluor 568-actin; test: AF568-actin-MyBP-C FLT binding assay (Fig. S1); settings: Suramin 20 µM, NF023 50 µM, ATA 20 µM
[2] = test system: TMR-MyBP-C (cC0-C2, sC1-C2S, sC1-C2L, fC1-C2); test: Compound effects on TMR-MyBP-C lifetime (Fig. S2); type: binding; settings: Suramin 20 µM, NF023 50 µM, ATA 20 µM
Source text: For FLT-TMR experiments, the same samples were excited at 532 nm.
Compound effects on TMR-MyBP-C lifetime. […] All values are the average ± SD. n=5.

[3] = molecular target: actin (Oryctolagus cuniculus) (UniProt P68135); test: FLT; settings: cited from earlier work
[4] = molecular target: actin (Oryctolagus cuniculus) (UniProt P68135); test: FLT; settings: cited from earlier work; remark: listed apart in the source
[5] = molecular target: actin (Oryctolagus cuniculus) (UniProt P68135); test: cosedimentation; settings: cited from earlier work
[6] = molecular target: actin (Oryctolagus cuniculus) (UniProt P68135); test: cosedimentation; settings: cited from earlier work; remark: listed apart in the source
[7] = test system: rabbit fast skeletal (psoas) myofibrils; test: Skeletal myofibril ATPase assay; type: biochemical; settings: 50 μM compound; for effect on skeletal MF ATPase activity (in words): pCa 8 to pCa 4
Method: (§1) Rabbit psoas and bovine cardiac myofibrils were prepared as described in our previous study ([17]). An enzyme-coupled, NADH-linked ATPase assay was used to measure skeletal and cardiac myofibril ATPase activity in 96-well microplates at 23 °C. Ionic strength was maintained below 0.2 M, so myofilaments remained insoluble and stable ([32]). To achieve optimal enzymatic activities, buffers for skeletal and cardiac myofibrils differed slightly ([33], [34]): skeletal in 50 mM MOPS, 100 mM KCl, 5 mM MgCl2, 1 mM EGTA, pH 7.0; cardiac in 20 mM MOPS, 35 mM NaCl, 5 mM MgCl2, 1 mM EGTA, pH 7.0. Each well in the microplate contained an assay mix of 0.84 mM phosphoenolpyruvate, 0.17 mM NADH, 10 U/vol pyruvate kinase, 20 U/vol lactate dehydrogenase. The concentration of free Ca^2+ was controlled by EGTA buffering ([35]). Myofibrils were dispensed in microplates with a multichannel pipette and were incubated with assay mix plus compound of interest for 20 min at 23 °C. The concentration of myofibrils used was 0.01 mg/ml for skeletal and 0.05 mg/ml for cardiac myofibrils. The assay was started upon the addition of ATP, at a final concentration of 2.1 mM (total volume to 200 μl), and absorbance was recorded at 340 nm in a SpectraMax Plus microplate spectrophotometer from Molecular Devices. The steady-state myofibrillar ATPase rate was measured from NADH oxidation, measured as the rate of decrease in absorption at 340 nm for 30 min, with absorption data collected every 15 s. All data and statistical analysis of steady-state kinetics were conducted with the OriginPro program. The results were fitted with the Hill equation:(6) V=V0+(Vmax/1+10^−n∗^(pCa50−pCa)) where V is the ATPase rate and n is the Hill coefficient.
ATPase activity is reported on the μmol ATP/mg protein/min scale. Average data are presented as mean ± SD. Sample means are derived from three different myofibril preps (N = 3), each done in duplicate (n = 6).
The effects of compounds on ATPase activity of myofibrils were determined in the presence of 50 μM compound, across a 12-point pCa range from 4.0 (activation) to 8.0 (relaxation). The calcium sensitivity (pCa50) was determined by fitting the curves to the Hill equation. In all experiments, a 1% DMSO-only control was included. The normalized ATPase activity of the selected compounds can be found in Figure 6.

[8] = test system: FMAL-actin/TMR-cC0-C2 interaction; test: FLT-FRET concentration-response assay, FMAL-actin plus TMR-cC0-C2; type: binding, human; settings: unphosphorylated cC0-C2
Summary of the method: (§2)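 Hits tested at eight concentrations (0.5–100 μM) and read on a high-throughput fluorescence lifetime plate reader. Hill fits applied only under certain conditions.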

[9] = test system: bovine cardiac (left ventricular) myofibrils; test: Cardiac myofibril ATPase assay; type: biochemical; settings: 50 μM compound; for effect on cardiac MF ATPase activity (in words): pCa 8 to pCa 4
Method: as §1, with “V=V0+(Vmax/1+10^−n∗^(pCa50−pCa)) where V” left out, “coefficient. ATPase activity is reported on the μmol ATP/mg protein/min scale. Average data are presented as mean ± SD. Sample means are derived from three different myofibril preps (N = 3), each done in duplicate (n = 6). The effects of compounds on ATPase activity of myofibrils were determined in the presence of 50 μM compound, across a 12-point pCa range from 4.0 (activation) to 8.0 (relaxation). The calcium sensitivity (pCa50) was determined by fitting the curves to the Hill equation. […] The normalized ATPase activity of the selected compounds can be found in Figure 6.” for “coefficient.”

[10] = test system: PKA-phosphorylated TMR-cC0-C2 (cC0-C2#P); test: FLT-TMR concentration-response assay, PKA-phosphorylated cC0-C2; type: binding, human; settings: 60 μM compound
Summary of the method: as §2

[11] = test system: TMR-cC0-C2 (C0-C2 fragment of human cMyBP-C); test: FLT-TMR concentration-response assay (FLT of TMR on cC0-C2, no actin); type: binding; settings: 60 μM compound
Summary of the method: as §2

[12] = test system: FMAL-actin plus TMR-cC0-C2; test: Selleck library HTS, 473 nm excitation (FLT of FMAL-actin with TMR-cC0-C2, FLT-FRET); type: binding, human
Summary of the method: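 Donor fluorescence lifetime was then recorded. Waveforms were fit to a single exponential, and ΔFLT was obtained after a moving-median plate-gradient correction (half-row window), rescaled by the median DMSO lifetime.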

[13] = test system: TMR-fC1-C2 (C1-C2 of fast skeletal MyBP-C); test: FLT-TMR concentration-response assay, fC1-C2; type: binding; settings: 60 μM compound
Summary of the method: as §2

TMR-cC0-C2 = test: Selleck library HTS, 532 nm excitation (FLT of TMR-cC0-C2 in presence of FMAL-actin); type: binding, human
[14] = robust z-score, hit threshold ±4, 30 μM compound

**Q.** Which results are given for O=C(O)C1=CC(=C(c2ccc(O)c(C(=O)O)c2)c2ccc(O)c(C(=O)O)c2)C=CC1=O [ATA, Aurintricarboxylic acid]?
**A.** effect on binding of fC1-C2 (2 µM) to Alexa Fluor 568-actin (1 µM) (in words) [1]: decreased the binding; effect on FLT of TMR-MyBP-C, all MyBP-C isoforms (in words) [2]: decreased

**Q.** What does the source list for “cardiac MyBP-C C0-C2 (from UniProt Q14896)”?
**A.** Kd [3]: 2.5 µM; Kd [4]: 19 µM; Kd [5]: 6.5 µM; Kd [6]: 4.3 µM

**Q.** For Cc1ccc(C(=O)Nc2ccc(S(=O)(=O)O)c3cc(S(=O)(=O)O)cc(S(=O)(=O)O)c23)cc1NC(=O)c1cccc(NC(=O)Nc2cccc(C(=O)Nc3cc(C(=O)Nc4ccc(S(=O)(=O)O)c5cc(S(=O)(=O)O)cc(S(=O)(=O)O)c45)ccc3C)c2)c1 [Suramin], which “effect on Ca^2+-sensitivity of skeletal MF ATPase (in words)” value [7] is on record?
**A.** eliminated the Ca^2+-sensitivity

**Q.** And the “effect on skeletal MF ATPase activity (in words)” value [7]?
**A.** showed activation at low Ca^2+; also recorded: strongest effect

**Q.** And the “effect on FLT-FRET / binding between FMAL-actin and TMR-cC0-C2 (in words)” value [8]?
**A.** eliminates binding

**Q.** What about the “effect on binding of fC1-C2 (2 µM) to Alexa Fluor 568-actin (1 µM) (in words)” value [1] of the same compound?
**A.** decreased the binding

**Q.** And the “effect on FLT of TMR-MyBP-C, all MyBP-C isoforms (in words)” value [2]?
**A.** increased

**Q.** And the “effect on Ca^2+-sensitivity of cardiac MF ATPase (in words)” value [9]?
**A.** eliminated the Ca^2+-sensitivity

**Q.** And the “effect on cardiac MF ATPase activity (in words)” value [9]?
**A.** remained at levels similar to those at low Ca^2+; also recorded: strongest effect

**Q.** Which results are given for Enoxaparin sodium?
**A.** effect on Ca^2+-sensitivity of skeletal MF ATPase (in words) [7]: negligible; effect on skeletal MF ATPase activity (in words) [7]: reduced at high Ca^2+; cC0-C2#P FLT change (% change from DMSO, FLT of TMR-MyBP-C) [10]: 6.9%; effect on FLT-FRET / binding between FMAL-actin and TMR-cC0-C2 (in words) [8]: decrease; cC0-C2/cC0-C2#P (ratio of FLT changes) [11]: 0.4; cC0-C2 FLT change (% change from DMSO, FLT of TMR-MyBP-C) [11]: 3.1%; 473-nm Δτ, Repeat 1 ([12]; initial screen, 30 μM compound): 0.190 ns; 473-nm Δτ, Repeat 2 ([12]; initial screen, 30 μM compound): 0.190 ns; 473-nm z-score (based on avg Δτ) [12, 14]: 10.68; cC0-C2/fC1-C2 (ratio of FLT changes) [13]: 1.1; fC1-C2 FLT change (% change from DMSO, FLT of TMR-MyBP-C) [13]: 2.8%; 532-nm Δτ, Repeat 1 (TMR-cC0-C2; initial screen, 30 μM compound): -0.023 ns; 532-nm Δτ, Repeat 2 (TMR-cC0-C2; initial screen, 30 μM compound): -0.033 ns; 532-nm z-score (based on avg Δτ) (TMR-cC0-C2; [14]): -1.67; effect on Ca^2+-sensitivity of cardiac MF ATPase (in words) [9]: significant decrease in Ca^2+-sensitivity; effect on cardiac MF ATPase activity (in words) [9]: reduced at high Ca^2+; also recorded: specific for cardiac myofibril ATPase effects; Ca^2+-sensitivity (pCa50) of cardiac MF ATPase in presence of compound ([9]; 5.77 ± 0.03 in the absence of the drug): 5.55 ± 0.03

**Q.** Which “effect on binding of fC1-C2 (2 µM) to Alexa Fluor 568-actin (1 µM) (in words)” value [1] does the source give for O=C(Nc1cccc(C(=O)Nc2ccc(S(=O)(=O)O)c3cc(S(=O)(=O)O)cc(S(=O)(=O)O)c23)c1)Nc1cccc(C(=O)Nc2ccc(S(=O)(=O)O)c3cc(S(=O)(=O)O)cc(S(=O)(=O)O)c23)c1 [NF023] here?
**A.** decreased the binding

**Q.** And the “effect on FLT of TMR-MyBP-C, all MyBP-C isoforms (in words)” value [2]?
**A.** increased

**Q.** What about the “effect on Ca^2+-sensitivity of cardiac MF ATPase (in words)” value [9] of the same compound?
**A.** affected

**Q.** What about the “effect on cardiac MF ATPase activity (in words)” value [9] of the same compound?
**A.** affected
